“Also recorded” adds a separate entry of the source. Marks after values point to notes of the source that are not given here.
What was measured:
ovariectomized CD rats [1] = test: MicroCT of trabecular and cortical bone, Model 2 rat OVX
Description: Microcomputed tomography (MicroCT) and bone bending as well as osmium uptake and PCR were used to evaluate bone dynamics and osteoporotic features in the different animal models. MicroCT assesses density and volume of both the trabecular and cortical bones. Measurements of the radius and circumference of the cortical bone can be undertaken. Calculations of the connectivity density, the structural model index (SMI) as well as the stiffness (all measures of structure) of the bone can be made. The polar moment of inertia (pMOI) as well as fracture and workloads identify the underlying bone strength.
Both mice and rats were exposed to the PPI, omeprazole, while the Mastomys were exposed to the H2 Receptor antagonist, loxitidine. GA administration was a single subcutaneous injection at the start of acid inhibition. Pharmacokinetically, this dose ranges between 15-20 nmol over an 8 week period.
Three groups were included for each animal model: a) Group A=placebo/saline treated (no OVX/Controls); b) Group B=OVX+Acid Inhibitory therapy (OVX); and c) Group C=GA treated ovariectomized animals (OVX+GA). At the termination of study (2 months), we evaluated whether the GA reversed the OVX-mediated alterations in bone parameters (microCT, bone strength and histomorphometry as well as circulating markers).
At the start of GA treatment, animals were 98 days (3.2 months) and at study termination, they were 163 days (5.4 months).

ovariectomized CD-1 mice = test: Circulating blood markers, Model 1 mouse OVX; assay type: in vivo
Experimental: Ovariectomy increased all three bone markers, PINP, CTX1 and osteocalcin. […] CON=control animals, OVX=ovariectomized animals, OVX+GA=gastrin antagonist treated ovariectomized animals. Mean±SEM. *p<0.05 vs. CON, **p<0.05 vs. OVX alone.
Circulating bone biomarkers were also altered by OVX. Specifically, PINP was increased (0.19±0.01 ng/ml vs. 0.1y±0.006, p<0.05) as was CTx-1 (0.60±0.14 ng/ml vs. 0.29±0.13, p<0.05) and osteocalcin was elevated (6.7±2.3 ng/ml vs. 4.1±1.2, p<0.05). Treatment with the antagonist attenuated each of these three ovariectomy-mediated alterations.

ovariectomized Mastomys [2] = test: Bone strength (Instron), Model 3 Mastomys OVX; assay type: in vivo
Experimental: Finally, bone strength was examined in Mastomys using an Instron device. Femurs were loaded to failure in four-point bending. Tests were conducted with a deflection rate of 0.05 mm/sec using a servohydraulic testing machine (Instron model 8874; Instron Corp., Norwood, Mass., USA). […] Measurements of bone strength using the Instron device confirmed the utility of the gastrin-antagonist in reversing the OVX-mediated bone phenotype.

CCK2 receptor = molecular target: T1, CCK2 receptor (Homo sapiens, UniProt P32239); test: Gastrin-stimulated cAMP production and calcitonin release/transcription in MTC-SK cells; assay type: cell-based; conditions: MTC-SK cells
T1 construct: Gastrin stimulated both cAMP as well as calcitonin release from the well-differentiated human MTC cell line, MTC-SK; endogenous in cells; host or cells: MTC-SK (human medullary thyroid carcinoma cell line)
T1 sequence (P32239 1-447): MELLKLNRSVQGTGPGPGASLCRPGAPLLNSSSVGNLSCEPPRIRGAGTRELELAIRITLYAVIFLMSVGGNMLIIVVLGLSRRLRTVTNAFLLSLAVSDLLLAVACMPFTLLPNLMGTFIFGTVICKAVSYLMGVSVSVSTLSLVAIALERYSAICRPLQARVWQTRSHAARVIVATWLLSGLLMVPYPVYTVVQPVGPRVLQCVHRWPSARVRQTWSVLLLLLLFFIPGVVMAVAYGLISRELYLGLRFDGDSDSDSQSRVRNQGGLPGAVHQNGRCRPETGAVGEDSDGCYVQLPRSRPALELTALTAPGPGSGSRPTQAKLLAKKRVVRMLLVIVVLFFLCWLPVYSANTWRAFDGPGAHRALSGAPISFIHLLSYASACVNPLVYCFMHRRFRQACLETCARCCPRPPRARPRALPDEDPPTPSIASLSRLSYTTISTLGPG

ovariectomized Mastomys [3] = test: Bone histomorphometry, Model 3 Mastomys OVX; assay type: in vivo; conditions: GA single s.c., 8 weeks
Description: Patterns of bone mineralization (BM: decreased), resorption cavities (RC: increased) and osteoclasts (stained multinuclear cells (two arrows): increased) were affected by OVX. These effects were reversed by drug treatment.
The gastrin-antagonist treatment reversed these phenomena (FIG. 55).

[4] = test system: calvarial osteoblasts, hFOB, BMMSCs; test: Proliferation (BrdU uptake) of bone-derived cells; assay type: cell-based, mouse, human; conditions: pre-incubation
ovariectomized CD rats [5] = test: Bone histomorphometry, Model 2 rat OVX; assay type: in vivo; conditions: GA single s.c., 8 weeks
Description: These effects were reversed by drug treatment. In one aspect, this reflects that targeting CCK2 receptors normalizes bone morphology irrespective of low estrogen levels.
Gastrin-antagonist treatment reversed these phenomena (FIG. 50).

ovariectomized CD rats [6] = test: Circulating blood markers, Model 2 rat OVX; assay type: in vivo
Experimental: Ovariectomy increased PINP and osteocalcin. […] CON=control animals, OVX=ovariectomized animals, OVX+GA=gastrin antagonist treated ovariectomized animals. Mean±SEM. *p<0.05 vs. CON, **p<0.05 vs. OVX alone.
Circulating bone biomarkers were also altered by OVX. Specifically, both PINP (0.57±0.18 ng/ml vs. 0.35±0.06, p<0.05) and osteocalcin was elevated (1.35±0.9 ng/ml vs. 0.43±0.07, p<0.05). Treatment with the antagonist attenuated each of these ovariectomy-mediated alterations.

[7] = OVX CD rats + omeprazole, GA 50 ug/animal single s.c., 8 weeks, cortical bone
[8] = OVX CD rats + omeprazole, GA 50 ug/animal single s.c., 8 weeks, trabecular bone
[9] = OVX CD rats + omeprazole, GA 50 ug/animal single s.c., 8 weeks, trabecular bone, listed as GA
[10] = OVX CD rats + omeprazole, GA 50 ug/animal single s.c., 8 weeks, trabecular bone, listed as Gastrin antagonist
[11] = OVX CD rats, GA-treated vs control, cortical bone
[12] = OVX CD rats, GA-treated vs control, trabecular bone
[13] = OVX CD-1 mice + omeprazole, GA 15 ug/animal single s.c., 8 weeks
[14] = OVX CD-1 mice, GA-treated vs control
[15] = OVX Mastomys + loxitidine, GA 10 ug/animal single s.c., 8 weeks
[16] = OVX Mastomys, GA-treated vs control
[17] = OVX CD rats + omeprazole, GA 50 ug/animal single s.c., 8 weeks
[18] = OVX CD rats, GA-treated vs control

## CNc1cccc(NC(=O)N[C@@H]2N=C(c3ccccn3)c3ccccc3N(CC(=O)C(C)(C)C)C2=O)c1 [YF476, netazepide]
Ovariectomized CD rats [1]; [7]
  BS: 43.3
  BV/TV: 0.965
  Ct. Th: 0.68
  pMOI: 14.03
Ovariectomized CD rats [1]; OVX CD rats + omeprazole, GA 50 ug/animal single s.c., 8 weeks, cortical bone, listed as GA
  Dens (Apparent Density, cortical): 1098
Ovariectomized CD rats [1]; OVX CD rats + omeprazole, GA 50 ug/animal single s.c., 8 weeks, cortical bone, listed as Gastrin-antagonist
  Dens (Apparent Density, cortical): 1098±24
Ovariectomized CD rats [1]; [8]
  BS: 154
  BV/TV: 0.189
  Conns-Dens: 68.58
  Tb. N: 2.17
  Tb. Sp: 0.48
  Tb. Th: 0.09
Ovariectomized CD rats [1]; [9]
  Dens (Apparent Density, trabecular): 200.5
  SMI: 1.33
Ovariectomized CD rats [1]; [10]
  Dens (Apparent Density, trabecular): 204±27
  SMI: 1.3±0.17
Ovariectomized CD rats [1]; [11]
  % Change BS: −13%*
  % Change BV/TV: 0%**
  % Change Ct. Th: +12%*
  % Change Dens (Apparent Density, cortical): −4%*^,**
  % Change pMOI: −22%*
Ovariectomized CD rats [1]; [12]
  % Change BS: −21%
  % Change BV/TV: −30%**
  % Change Conns-Dens: +8%
  % Change Dens (Apparent Density, trabecular): −30%*^, **
  % Change SMI: +143%*
  % Change Tb. N: −18%**
  % Change Tb. Sp: +9%**
  % Change Tb. Th: −13%**
Ovariectomized CD-1 mice; [13]
  CTX-1: 053 ng/mL
  ESR (circulating estrogen): 1.47 pg/mL
  Gastrin (circulating): 2971 pg/mL
  Osteocalcin: 5.3 ng/mL
  PINP: 0.169 ng/mL
  PTH (circulating): 92.1 pg/mL
Ovariectomized CD-1 mice; [14]
  % Change CTX-1: −9%**
  % Change ESR: −71%*
  % Change Gastrin: +22%
  % Change Osteocalcin: +30%**
  % Change PINP: 0%**
  % Change PTH: +79%*
Ovariectomized Mastomys [2]; [15]
  Fracture Load: 42.1
  Max Load: 42.2
  Stiffness: 311
  Total Work: 14.8
  Yield (Stiffness): 280
Ovariectomized Mastomys [2]; [16]
  % Change Fracture Load: −25%
  % Change Max Load: −25%
  % Change Stiffness: −6%**
  % Change Total Work: 55%*^,**
  % Change Yield (Stiffness): −6%**
CCK2 receptor
  effect on gastrin-mediated calcitonin secretion: reversed
  effect on gastrin-stimulated cAMP production: reversed
CCK2 receptor; without gastrin
  effect alone on cAMP production: no significant effect
Ovariectomized Mastomys [3]
  effect on OVX changes in bone mineralization, resorption cavities and TRAP-positive osteoclasts: reversed
[4]
  effect on gastrin-stimulated proliferation: not inhibited; also recorded: not reversed
Ovariectomized CD rats [5]
  effect on OVX changes in bone mineralization, resorption cavities and TRAP-positive osteoclasts: reversed
Ovariectomized CD rats [6]; [17]
  CTX1: 0.42
  ESR (circulating estrogen): 2.1 pg/mL
  Gastrin (circulating): 2971 pg/mL
  Osteocalcin: 0.80 ng/mL
  PINP: 0.48 ng/mL
  PTH (circulating): 1562
Ovariectomized CD rats [6]; [18]
  % Change CTX1: −49%
  % Change ESR: −60%*
  % Change Gastrin: +183%*
  % Change Osteocalcin: +81%**
  % Change PINP: +41%
  % Change PTH: −15%

Reference: patent US10709714B2 (CL BioSciences LLC, priority 2013, dated 2020)
